Results: patent US11236060B2, “Method for producing solid dispersion containing nobiletin” (KAO CORPORATION, priority 2018, dated 2022)

Test: Solubility in 25° C. water of the poorly water-soluble substance
Assay type: physicochemical
Conditions: poorly water-soluble substance itself (ingredient)

| SMILES | Solubility in 25° C. water [ppm] |
| --- | --- |
| O=c1oc2c(O)c(O)cc3c(=O)oc4c(O)c(O)cc1c4c23 [Ellagic acid, ellagic acid] | 4 |
| COc1ccc(-c2cc(=O)c3c(OC)c(OC)c(OC)c(OC)c3o2)cc1OC [Nobiletin, 3′,4′,5,6,7,8-hexamethoxyflavone] | 1 |
